Counter-ions that a name gives are not always drawn.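 Assay format: 96-well plates, 48-hour exposure. Here, GI50 denotes the concentration required for 50% inhibition of growth.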 Activity calls are given as the source filed them. No stated cut-off is given here; in the data, active = GI50 up to about 1.1 µM and inactive = higher.
Legend:
Test in all cases: NCI tumour cell line growth inhibition, 48 h
HOP-62 = test system: HOP-62
RXF 393 = test system: RXF 393
SN12C = test system: SN12C
NCI/ADR-RES = test system: NCI/ADR-RES
M14 = test system: M14
A498 = test system: A498
ACHN = test system: ACHN
NCI-H522 = test system: NCI-H522
MCF7 = test system: MCF7
COLO 205 = test system: COLO 205
A549 = test system: A549
DU-145 = test system: DU-145
IGROV-1 = test system: IGROV-1
SK-MEL-2 = test system: SK-MEL-2
MDA-MB-435 = test system: MDA-MB-435
KM12 = test system: KM12
HT-29 = test system: HT-29
OVCAR-8 = test system: OVCAR-8
HCT-15 = test system: HCT-15

`NC(CC(=O)O)(Cc1ccccc1)C(=O)O` (configuration not stated) was tested, and the GI50 (HOP-62) was > 100 µM (inactive), the GI50 (RXF 393) was > 100 µM (inactive) and the GI50 (SN12C) was > 100 µM (inactive). The GI50 (NCI/ADR-RES) was > 100 µM (inactive), the GI50 (M14) was > 100 µM (inactive) and the GI50 (A498) was > 100 µM (inactive). For the same compound, the GI50 (ACHN) was > 100 µM (inactive), the GI50 (NCI-H522) was > 100 µM (inactive) and the GI50 (MCF7) was > 100 µM (inactive). For the same compound, the GI50 (COLO 205) was > 100 µM (inactive), the GI50 (A549) was > 100 µM (inactive) and the GI50 (DU-145) was > 100 µM (inactive). For the same compound, the GI50 (IGROV-1) was > 100 µM (inactive), the GI50 (SK-MEL-2) was > 100 µM (inactive) and the GI50 (MDA-MB-435) was > 100 µM (inactive). For the same compound, the GI50 (KM12) was > 100 µM (inactive), the GI50 (HT-29) was > 100 µM (inactive) and the GI50 (OVCAR-8) was > 100 µM (inactive). For the same compound, the GI50 (HCT-15) was greater than 100 µM.
For `CN(C)CCNC(=O)c1cc(NC(=O)c2cc(NC(=O)CC/C=C3/[C@@H]4CC[C@H]3N=N4)cn2C)cn1C`, the GI50 (HOP-62) was > 100 µM (inactive), the GI50 (RXF 393) was > 100 µM (inactive) and the GI50 (SN12C) was > 100 µM (inactive). For the same compound, the GI50 (NCI/ADR-RES) was > 100 µM (inactive), the GI50 (M14) was > 100 µM (inactive) and the GI50 (A498) was > 100 µM (inactive). The GI50 (ACHN) was > 100 µM (inactive), the GI50 (NCI-H522) was > 100 µM (inactive) and the GI50 (MCF7) was > 100 µM (inactive). For the same compound, the GI50 (COLO 205) was > 100 µM (inactive), the GI50 (A549) was > 100 µM (inactive) and the GI50 (DU-145) was > 100 µM (inactive). For the same compound, the GI50 (IGROV-1) was > 100 µM (inactive), the GI50 (SK-MEL-2) was > 100 µM (inactive) and the GI50 (MDA-MB-435) was > 100 µM (inactive). For the same compound, the GI50 (KM12) was > 100 µM (inactive), the GI50 (HT-29) was > 100 µM (inactive) and the GI50 (OVCAR-8) was > 100 µM (inactive). The GI50 (HCT-15) was greater than 100 µM.
`COc1c(CC=C(C)C)c(O)c(C(CC(C)C)c2c(O)c3c(c(C(C)=O)c2O)OC(C(C)(C)O)C3)c(O)c1C(C)=O` (configuration not stated) was tested, and the GI50 (HOP-62) was 5.2 µM (inactive), the GI50 (RXF 393) was 3.67 µM (inactive) and the GI50 (SN12C) was 3.93 µM (inactive). The GI50 (NCI/ADR-RES) was 3.44 µM (inactive), the GI50 (M14) was 6.05 µM (inactive) and the GI50 (A498) was 3.84 µM (inactive). For the same compound, the GI50 (ACHN) was 4.42 µM (inactive), the GI50 (NCI-H522) was 3.42 µM (inactive) and the GI50 (MCF7) was 3.61 µM (inactive). For the same compound, the GI50 (COLO 205) was 3.21 µM (inactive), the GI50 (A549) was 4.21 µM (inactive) and the GI50 (DU-145) was 4.54 µM (inactive). The GI50 (IGROV-1) was 5.07 µM (inactive), the GI50 (SK-MEL-2) was 4.15 µM (inactive) and the GI50 (MDA-MB-435) was 4.63 µM (inactive). For the same compound, the GI50 (KM12) was 3.7 µM (inactive), the GI50 (HT-29) was 4.86 µM (inactive) and the GI50 (OVCAR-8) was 4.4 µM (inactive). For the same compound, the GI50 (HCT-15) was 3.64 µM.
With `O=C(SC1=NCCN1)c1cccc2ccccc12` the GI50 (HOP-62) was 55 µM (inactive), the GI50 (RXF 393) was 53.7 µM (inactive) and the GI50 (SN12C) was 64.6 µM (inactive). The GI50 (NCI/ADR-RES) was 31.6 µM (inactive), the GI50 (M14) was 67.6 µM (inactive) and the GI50 (A498) was > 100 µM (inactive). The GI50 (ACHN) was 66.8 µM (inactive), the GI50 (NCI-H522) was 19.5 µM (inactive) and the GI50 (MCF7) was 50.9 µM (inactive). The GI50 (COLO 205) was > 100 µM (inactive), the GI50 (A549) was > 100 µM (inactive) and the GI50 (DU-145) was 67.5 µM (inactive). For the same compound, the GI50 (IGROV-1) was 63.7 µM (inactive), the GI50 (SK-MEL-2) was > 100 µM (inactive) and the GI50 (MDA-MB-435) was 53.5 µM (inactive). For the same compound, the GI50 (KM12) was 37 µM (inactive), the GI50 (HT-29) was 38.6 µM (inactive) and the GI50 (OVCAR-8) was 71.9 µM (inactive). For the same compound, the GI50 (HCT-15) was 48.6 µM.
In the case of `CC(=O)NNc1nc(C)c(C(/C=C/c2cccc([N+](=O)[O-])c2)=N/NC(=S)NN)s1`, the GI50 (HOP-62) is reported as 91 µM (inactive), the GI50 (RXF 393) is reported as > 100 µM (inactive) and the GI50 (SN12C) is reported as > 100 µM (inactive). For the same compound, the GI50 (NCI/ADR-RES) was > 100 µM (inactive), the GI50 (M14) was > 100 µM (inactive) and the GI50 (A498) was > 100 µM (inactive). The GI50 (ACHN) was > 100 µM (inactive), the GI50 (NCI-H522) was > 100 µM (inactive) and the GI50 (MCF7) was > 100 µM (inactive). For the same compound, the GI50 (COLO 205) was > 100 µM (inactive), the GI50 (A549) was > 100 µM (inactive) and the GI50 (DU-145) was > 100 µM (inactive). For the same compound, the GI50 (IGROV-1) was > 100 µM (inactive), the GI50 (SK-MEL-2) was > 100 µM (inactive) and the GI50 (MDA-MB-435) was > 100 µM (inactive). The GI50 (KM12) was > 100 µM (inactive), the GI50 (HT-29) was > 100 µM (inactive) and the GI50 (OVCAR-8) was > 100 µM (inactive). For the same compound, the GI50 (HCT-15) was greater than 100 µM.
With `O=C(O)CP(=O)(O)O` the GI50 (HOP-62) was > 100 µM (inactive), the GI50 (RXF 393) was > 100 µM (inactive) and the GI50 (SN12C) was > 100 µM (inactive). For the same compound, the GI50 (NCI/ADR-RES) was > 100 µM (inactive), the GI50 (M14) was > 100 µM (inactive) and the GI50 (A498) was > 100 µM (inactive). The GI50 (ACHN) was > 100 µM (inactive), the GI50 (NCI-H522) was > 100 µM (inactive) and the GI50 (MCF7) was > 100 µM (inactive). For the same compound, the GI50 (COLO 205) was > 100 µM (inactive), the GI50 (A549) was > 100 µM (inactive) and the GI50 (DU-145) was > 100 µM (inactive). The GI50 (IGROV-1) was > 100 µM (inactive), the GI50 (SK-MEL-2) was > 100 µM (inactive) and the GI50 (MDA-MB-435) was > 100 µM (inactive). For the same compound, the GI50 (KM12) was > 100 µM (inactive), the GI50 (HT-29) was > 100 µM (inactive) and the GI50 (OVCAR-8) was > 100 µM (inactive). It also gave a GI50 (HCT-15) greater than 100 µM.
With `O=C(/C=C/c1ccc(O)c(-c2cc(C(=O)/C=C/c3ccc(O)cc3)c(O)cc2O)c1)c1ccc(O)cc1O` [RHUSCHALCONE VI] the GI50 (HOP-62) was 30.9 µM (inactive), the GI50 (RXF 393) was 17.2 µM (inactive) and the GI50 (SN12C) was 20.4 µM (inactive). For the same compound, the GI50 (NCI/ADR-RES) was > 50 µM (inactive), the GI50 (M14) was 49.1 µM (inactive) and the GI50 (A498) was > 50 µM (inactive). For the same compound, the GI50 (ACHN) was > 50 µM (inactive), the GI50 (NCI-H522) was 37.4 µM (inactive) and the GI50 (MCF7) was 20.2 µM (inactive). The GI50 (COLO 205) was 10.5 µM (inactive), the GI50 (A549) was > 50 µM (inactive) and the GI50 (DU-145) was 40.5 µM (inactive). The GI50 (IGROV-1) was 24.5 µM (inactive), the GI50 (SK-MEL-2) was 20.7 µM (inactive) and the GI50 (MDA-MB-435) was 21.4 µM (inactive). The GI50 (KM12) was 13.3 µM (inactive), the GI50 (HT-29) was 10.1 µM (inactive) and the GI50 (OVCAR-8) was 11.7 µM (inactive). It also gave a GI50 (HCT-15) greater than 50 µM.
With `CN1[C@@H]2C[C@@H](OC(=O)[C@H](CO)c3ccccc3)C[C@H]1[C@@H]1O[C@@H]12` [SCOPOLAMINE HYDROBROMIDE] the GI50 (HOP-62) was > 100 µM (inactive), the GI50 (RXF 393) was > 100 µM (inactive) and the GI50 (SN12C) was > 100 µM (inactive). For the same compound, the GI50 (NCI/ADR-RES) was > 100 µM (inactive), the GI50 (M14) was > 100 µM (inactive) and the GI50 (A498) was > 100 µM (inactive). For the same compound, the GI50 (ACHN) was > 100 µM (inactive), the GI50 (NCI-H522) was > 100 µM (inactive) and the GI50 (MCF7) was > 100 µM (inactive). For the same compound, the GI50 (COLO 205) was > 100 µM (inactive), the GI50 (A549) was > 100 µM (inactive) and the GI50 (DU-145) was > 100 µM (inactive). The GI50 (IGROV-1) was > 100 µM (inactive), the GI50 (SK-MEL-2) was > 100 µM (inactive) and the GI50 (MDA-MB-435) was > 100 µM (inactive). For the same compound, the GI50 (KM12) was > 100 µM (inactive), the GI50 (HT-29) was > 100 µM (inactive) and the GI50 (OVCAR-8) was > 100 µM (inactive). It also gave a GI50 (HCT-15) greater than 100 µM.
